Source: paper PMC12383012 (Antioxidants, 2025)
Entries after “also recorded” stand apart in the source; their conditions may differ. Like-named read-outs stand apart in the source and are kept apart here.

Assays:
[1] = radical scavenging, parent acid; read-out: AA EC50; cited from earlier work
Aβ1–42 = biological target: T1, Aβ1–42 (Homo sapiens, UniProt P05067); assay: Inhibition of Aβ1–42 self-aggregation (ThT fluorescence); assay type: biochemical; details: read-out: % Aβ42 Self-Agg Inhib
T1 construct: the Aβ1–42 peptide (Shanghai Royobiotech Co., Ltd., Shanghai, China); purchased Shanghai Royobiotech Co., Ltd
Method: Firstly, the Aβ1–42 peptide (Shanghai Royobiotech Co., Ltd., Shanghai, China) was treated with 1,1,1,3,3,3-hexafluoropropan-2-ol (HFIP) and then dissolved in a CH3CN/Na2CO3 (300 μM)/NaOH (250 μM) (48.3:48.3:4.3, v/v/v) mixture in order to obtain a stable stock solution (500 μM).
Solutions of 1 mg of the assayed compounds in 2 mL of 1:1 (v/v) DMSO/MeOH (0.5 mg/mL) medium were prepared and then properly diluted with phosphate buffer (0.215 M, pH 8.0) to obtain a 120 μM final concentration. The Aβ1–42 self-aggregation inhibition assays were made based on a reported method, involving the fluorescence emission of thioflavin T (ThT). So, Aβ1–42 (40 μM) was incubated at 37 °C for 24 h in phosphate buffer and in the presence or absence of each ligand (40 μM for all compounds but 4AY4 and 4CY1, for which 20 μM was used). Then, […] 5 μM ThT in 50 mM glycine-NaOH (pH 8.5) buffer were added to each sample before transferring the samples to a 96-well microplate. Blank samples were also prepared without Aβ1–42. The ThT fluorescence was measured (446 and 485 nm excitation and emission wavelengths, respectively), and the percent of self-aggregation inhibition was determined by the equation:I% = 100 − (IFi/IF0 × 100) where IFi and IF0 are the fluorescence intensities, in the presence and the absence of the assayed compound, subtracted from the fluorescence intensities due to the respective blanks. The calculated values were obtained as the mean ± SEM of four different experiments conducted in duplicate. Statistical analysis was performed by a one-way analysis of variance (ANOVA) with a significance threshold set at p < 0.05.

[2] = system: SH-SY5Y human neuroblastoma cell line; assay: Cell viability dose-response screening (MTT); assay type: cell-based; details: 24 h
Method: (§1) Cell viability was assessed using the colorimetric MTT (3-(4,5-dimethylthiazol-2-yl)-2,5-diphenyltetrazolium bromide) assay, as previously described.
(§2) The compounds’ solutions (4AY1-6, 4BY1-3, and 4CY1) were prepared in DMSO to create stock solutions at a concentration of 25 mM, which were then stored at −20 °C. A concentration range from 0.5 µM to 20 µM was screened to identify the highest non-toxic dose. The SH-SY5Y human neuroblastoma cell line (ATCC-CRL-2266) was grown in Dulbecco’s modified Eagle’s medium (DMEM) (Thermo Fisher Scientific-Gibco, Waltham, MA, USA) supplemented with 10% heat-inactivated fetal calf serum, 50 U/mL penicillin, and 50 µg/mL streptomycin at 37 °C in a 5% CO2 atmosphere. The cells were seeded at a density of 0.1 × 10^6 cells/mL (when 48-well plates were used) or 0.15 × 10^6 cells/mL (when 24-well plates were used) one day before the experiment commenced. Following the seeding, the cells were treated with the selected concentrations of compounds for 24 h. After treatment, the cells were washed with PBS and incubated with 150 µL (in 48-well plates) or 200 µL (in 24-well plates) of MTT (0.5 mg/mL) for 2 h at 37 °C with 5% CO2. During this incubation, cellular dehydrogenases converted MTT into formazan crystals, which were subsequently dissolved in 150 µL (in 48-well plates) or 200 µL (in 24-well plates) of 0.04 M HCl/isopropanol, and the absorbance was measured at 570 nm.

[3] = biological target: T2, electric eel acetylcholinesterase (eeAChE) (Electrophorus electricus, UniProt O42275); assay: Acetylcholinesterase inhibition (adapted Ellman's method); assay type: biochemical; details: read-out: AChE Inhib IC50
T2 construct: purchased
Method: (§3) The enzyme inhibition of electric eel acetylcholinesterase (eeAChE) and equine butyrylcholinesterase (eqBChE) was performed according to an adaptation of Elmman’s method. Stock solutions of 1 mg of each compound in 1 mL MeOH were prepared, and adequate dilutions were further made for each ligand. A control measurement (5 replicates without a ligand) and a calibration curve of 5 points with 3 replicates per point were conducted. Each solution included fixed volumes of 4-(2-hydroxyethyl)-1-piperazine-ethanesulfonic acid (HEPES) and cholinesterase (eeAChE or eqBChE), with different volumes of ligand solution. A blank solution containing HEPES and MeOH was also prepared at the same time. After 15 min of reaction, […] (AChI) or butyrylcholine iodide (BChI) and 5,5’-dithiobis-(2-nitrobenzoic acid) (DTNB) were added to both solutions contained in spectrophotometer cuvettes, and the absorbance at 405 nm was recorded for 5 min (time interval = 1 s, slid width = 1 nm). The slope for each calibration point (absorbance versus reaction time) was determined, and the percent inhibition was calculated by using the equation: %Inhibition=100−(vi/v0×100). where vi is the reaction rate (slope) for each point of the calibration with the ligand, and v0 is the initial reaction rate (slope) for the control point (without ligand). Finally, the five-point linear regression (10–50 µL of ligand solution) corresponding to the percentage of enzyme inhibition vs. the compound concentration allowed for the determination of the half maximal inhibitory concentration (IC50, µM) (compound concentration for which enzyme activity is reduced to half). Experiments were performed twice for each ligand. Statistical analysis was performed by a one-way analysis of variance (ANOVA) with a significance threshold set at p < 0.05.

[4] = Free-radical-scavenging assay (DPPH method)
Method: The percentage of radical-scavenging activity (%AA, antioxidant capacity) of the RIV hybrids was first determined by the 2,2-diphenyl-1-picrylhydrazyl (DPPH) method using a compound concentration of 100 μM. […] Each calibration point was kept 30 min in darkness, and afterwards, the absorbance was measured at 517 nm. The corresponding antioxidant activity (%AA) was calculated using the equation %AA=ADPPH−Aligand/ADPPH×100. From the plot of %AA versus ligand concentration, EC50 was determined. Three independent experiments were performed, and a statistical analysis was conducted by a one-way analysis of variance (ANOVA) with the significance threshold set at p < 0.05.
The RIV hybrids were screened for their radical-scavenging activity by using the DPPH method. These assays were conducted in two stages: first, preliminary analyses were performed for all the compounds to evaluate the percentage of radical-scavenging activity by using a compound concentration of 100 μM. Afterwards, the compounds showing more than 50% antioxidant activity (AA), under those conditions, were further assessed to evaluate the respective EC50 values.

[5] = biological target: T3, equine butyrylcholinesterase (eqBChE) (Equus caballus, UniProt P81908); assay: Butyrylcholinesterase inhibition (adapted Ellman's method); assay type: biochemical
T3 construct: purchased
Method: as §3

[6] = system: SH-SY5Y human neuroblastoma cell line; assay: Protection against iron/ascorbate-induced toxicity (MTT); assay type: cell-based; details: 1 h pre-treatment at highest nontoxic concentration, then 24 h with Fe/Asc
Method: as §1, §2
To evaluate the compounds’ protective effects against toxicity induced by Aβ1–42 or iron/ascorbate, the cells were pre-treated with each compound for one hour before adding Aβ1–42 or iron/ascorbate, followed by an additional 24-h incubation. Aβ1–42 (Bachem, Torrance, CA, USA) was prepared in sterile water to create a 443 µM stock solution and was added to the cells at a final concentration of 1 µM. Ferrous sulfate and L-ascorbic acid (Sigma Chemical Co., St. Louis, MO, USA) were introduced into the medium at final concentrations of 5 mM and 2.5 mM, respectively. […]

T3 sequence (P81908 whole entry): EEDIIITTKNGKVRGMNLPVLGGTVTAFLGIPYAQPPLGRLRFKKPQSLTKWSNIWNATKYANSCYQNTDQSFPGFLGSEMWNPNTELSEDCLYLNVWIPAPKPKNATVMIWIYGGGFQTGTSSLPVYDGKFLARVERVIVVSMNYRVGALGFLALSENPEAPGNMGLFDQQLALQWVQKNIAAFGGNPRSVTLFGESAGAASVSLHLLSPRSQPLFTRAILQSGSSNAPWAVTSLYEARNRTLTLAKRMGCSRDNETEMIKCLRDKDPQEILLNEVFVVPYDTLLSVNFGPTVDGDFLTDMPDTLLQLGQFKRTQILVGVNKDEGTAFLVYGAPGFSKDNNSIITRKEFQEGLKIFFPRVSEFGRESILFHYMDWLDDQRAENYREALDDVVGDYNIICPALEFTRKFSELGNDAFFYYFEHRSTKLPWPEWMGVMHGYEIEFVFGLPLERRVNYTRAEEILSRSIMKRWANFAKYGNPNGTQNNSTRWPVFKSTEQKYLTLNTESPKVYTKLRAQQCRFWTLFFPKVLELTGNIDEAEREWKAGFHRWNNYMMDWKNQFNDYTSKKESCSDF
T1 sequence (P05067 672-713): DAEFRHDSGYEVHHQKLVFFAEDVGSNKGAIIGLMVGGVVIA
T2 sequence (O42275 24-633): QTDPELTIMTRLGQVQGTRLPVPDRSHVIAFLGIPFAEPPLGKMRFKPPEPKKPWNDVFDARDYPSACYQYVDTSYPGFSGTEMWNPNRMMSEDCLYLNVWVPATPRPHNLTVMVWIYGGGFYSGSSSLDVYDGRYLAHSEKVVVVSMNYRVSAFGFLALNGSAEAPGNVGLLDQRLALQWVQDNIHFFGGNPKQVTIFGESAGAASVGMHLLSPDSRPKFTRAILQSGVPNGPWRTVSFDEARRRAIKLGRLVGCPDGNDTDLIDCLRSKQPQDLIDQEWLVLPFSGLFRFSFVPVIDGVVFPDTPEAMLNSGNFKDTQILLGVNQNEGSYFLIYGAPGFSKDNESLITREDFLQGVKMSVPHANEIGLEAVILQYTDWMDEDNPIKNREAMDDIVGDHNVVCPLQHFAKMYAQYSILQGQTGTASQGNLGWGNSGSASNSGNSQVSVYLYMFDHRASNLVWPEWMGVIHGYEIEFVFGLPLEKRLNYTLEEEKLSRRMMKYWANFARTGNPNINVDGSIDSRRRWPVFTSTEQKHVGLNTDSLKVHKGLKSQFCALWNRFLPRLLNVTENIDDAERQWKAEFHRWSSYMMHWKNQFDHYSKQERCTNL

Structure (SMILES)	EC50 [1]	inhibition at 40 µM (Aβ1–42)	highest nontoxic concentration [2]	IC50 [3]	% AA (radical-scavenging activity) ([4]; compound concentration 100 μM)	EC50 ([4]; read-out: AA EC50)	SI (selectivity index) ([5]; SI = IC50 (AChE)/IC50 (BChE))	IC50 ([5]; eqBChE, read-out: BChE Inhib IC50)	rescue of cell viability after iron/ascorbate treatment [6]
O=C(O)/C=C/C=C/c1ccc(O)c(O)c1 [(2E,4E)-5-(3,4-dihydroxyphenyl)penta-2,4-dienoic acid]	18.2 ± 0.2 µM								
O=C(O)C=Cc1ccc(O)c(O)c1 [caffeic acid, 3,4-dihydroxycinnamic acid]	21.7 ± 0.2 µM								
CCN(C)C(=O)Oc1cccc(CNC(=O)C2(C)CCc3c(C)c(O)c(C)c(C)c3O2)c1 (stereo not shown) [4BY2, 3-((6-Hydroxy-2,5,7,8-tetramethylchromane-2-carboxamido)methyl)phenyl ethyl(methyl)carbamate]		47 ± 3%	1 µM	32 ± 2 µM	93.9 ± 0.4%	20 ± 0.8 µM	8.6	3.7 ± 0.1 µM	capable of rescuing the cell viability; also recorded: significantly improved cell viability
